Among the data in PubChem BioAssay (NCI) are TGI and GI50 values, retold here.

Experiment in all cases: NCI anticancer screen, dose series, 48 h
Assay [1] concerns RPMI-8226 leukemia.
The subject of assay [2] is HT29 colon.
For assay [3], the system named is HOP-62 NSCLC.
Assay [4] has as its system NCI-H226 lung.
Assay [5] concerns SF-295 CNS.
Assay [6] concerns SW-620 colon.
In assay [7] the test system is OVCAR-4 ovarian.
The subject of assay [8] is SF-539 CNS.
The test system of assay [9] is MCF7 breast.
The test system of assay [10] is HOP-92 NSCLC.

The structures appear in SMILES notation.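 Test compounds were applied to cells in 96-well plates for 48 hours at 5 doses. GI50 is the concentration that inhibits growth by half. TGI is the concentration that stops growth completely.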 A value given as a limit tells only on which side of the number the result lay.

In the case of `COC(=O)c1cc(NC(=O)c2cc(NC(=O)Cc3c[nH]c4ccccc34)cn2C)cn1C`, the TGI in [1] was 48.4 µM; in assay [2], 55.8 µM; in [3], greater than 100 µM; in assay [4], greater than 100 µM; in assay [5] it was greater than 100 µM; in [6], greater than 100 µM. In addition, the TGI in assay [7], in assay [8] and in [9] was greater than 100 µM each time.
As for `O=C(Cc1csc2nc(-c3ccc(Cl)cc3)cn12)N/N=C/c1ccccc1O`, the GI50 is 3.39 µM in assay [10]; 3.36 µM in [1]; 4.67 µM in assay [3]; 4.65 µM in assay [4]; 5.21 µM in assay [5]; 6.81 µM in assay [6]. Besides, the GI50 is 1.5 µM in assay [7], 7.93 µM in [8] and 3.34 µM in assay [9]. The TGI in assay [10] was 32.4 µM; in assay [1] it was greater than 100 µM; in assay [3], greater than 100 µM; in [4] it was greater than 100 µM; in assay [5] it was greater than 100 µM; in [6] it was greater than 100 µM. Also, the TGI in assay [7], in assay [8] and in assay [9] was greater than 100 µM throughout.
Consider `N#Cc1ccccc1C#C/C=C\C#Cc1ccccc1N`, for which the GI50 in [10] was 2.45 µM; in assay [1] it was 2.28 µM; in assay [2] it was 4.38 µM; in [4], 6.6 µM; in assay [5], 1.28 µM; in assay [6], 3.76 µM. Besides, the GI50 in [7] was 16.1 µM; in [8], 4.49 µM; in [9] it was 67.9 µM. The TGI in assay [10] is greater than 78.2 µM; in assay [1], greater than 93 µM; in [2], greater than 100 µM; in [4], greater than 38.5 µM; in [5], 5.01 µM; in [6], greater than 100 µM. The TGI is greater than 100 µM in [7], greater than 20.2 µM in assay [8] and greater than 100 µM in assay [9].
Regarding `O=C1C2Cc3c(n(C(=O)c4ccccc4)c4ccccc34)CC2C(=O)N1c1ccc(Nc2ccc(N3C(=O)C4Cc5c(n(C(=O)c6ccccc6)c6ccccc56)CC4C3=O)cc2)cc1` (stereo not drawn), the TGI in assay [10], in assay [2], in assay [3], in assay [4], in assay [5] and in assay [7] was greater than 100 µM each time. In [9], this molecule yielded a TGI greater than 100 µM.
On to `O=C(CC(c1ccccc1)C1C(=O)NC(=S)NC1=O)c1ccc([N+](=O)[O-])cc1` (stereo not drawn), for which the TGI in assay [10], in [1], in assay [2], in [3], in assay [4] and in [5] was greater than 100 µM in each case. The TGI is greater than 100 µM in [6], greater than 100 µM in [7], greater than 100 µM in assay [8] and 37.5 µM in assay [9].
With `Cn1c2[n+](c3nc(N)[nH]c(=O)c31)C1OC(C2)C(O)C1O` (stereo not drawn), the TGI in [10], in assay [2], in assay [3], in assay [4], in [5] and in assay [6] was greater than 100 µM each time. Moreover, the TGI in [7] and in assay [8] was greater than 100 µM each time.
In the case of `COc1cccc(/C=N/[N-]C(N)=O)c1[O-].[Ni+2].[OH3+]`, the TGI in [10] amounted to 0.934 µM; in assay [1], 4.13 µM; in assay [2] it was 2.07 µM; in assay [3] it was 2.52 µM; in assay [4], 2.11 µM; in assay [5] it was 2.36 µM. The values for the TGI in assay [6], in assay [7] and in assay [8] were 0.371 µM, 1.01 µM and 2.28 µM, respectively. Besides, the GI50 in assay [6] was 0.135 µM.
Regarding `CS(C)(=O)=Nn1c(=O)n2n(c1=O)C1c3ccccc3C2c2ccccc21`, the TGI in [10], in assay [1], in assay [2], in assay [3], in assay [5] and in [6] was greater than 100 µM in each case. Also, the TGI in assay [8] and in [9] was greater than 100 µM throughout.
With `CC(C)CC1c2[nH]c3ccccc3c2C[C@H]2C(=O)NC(CCCCNC(=O)OC(C)(C)C)C(=O)N12` (stereo partly drawn), the TGI in assay [10] was 89.8 µM; in [1], 58.5 µM; in assay [2], 64.6 µM; in assay [3], greater than 100 µM; in [4] it was greater than 100 µM; in [5], 40.9 µM. Besides, the TGI in assay [6], in [7] and in [9] was greater than 100 µM in each case.
As to `Cc1ccc(OCC2=NC3S/C(=C/c4ccc([N+](=O)[O-])o4)C(=O)N3N2)cc1` (stereo not drawn), the TGI in assay [10] stood at 8.8 µM; in assay [1] it was 6.16 µM; in assay [2], 22.6 µM; in assay [3] it was 33.7 µM; in [4] it was 33.3 µM; in assay [5], 30.4 µM. Further, the TGI in [6] was found to be 15 µM; in [7], 7.86 µM; in [8] it was 4.3 µM.
In the case of `O=C(O)C(O)C(O)C(O)C(O)C(=O)O` (stereo not drawn), the TGI in [10], in assay [2], in [3], in assay [4], in [5] and in [6] was greater than 100 µM each time. Also, the TGI in [7], in assay [8] and in [9] was greater than 100 µM in each case.
`Nc1cc(S(=O)(=O)O)cc2ccc(S(=O)(=O)O)cc12`: the TGI in assay [10], in [1], in [2], in assay [3], in assay [5] and in [6] was greater than 100 µM each time. Besides, the TGI in assay [7], in assay [8] and in assay [9] was greater than 100 µM in each case.
On to `COC(=O)C1=C(OC(=O)/C=C/c2ccc(Cl)cc2)C(C(=O)OC)[C@]2(O)[C@@H](C(=O)OC)[C@H]1C[C@@H](c1ccccc1)[C@@H]2C(=O)OC` (stereo partly drawn), for which the TGI in assay [10] is 7.73 µM; in [1], greater than 100 µM; in assay [2], greater than 100 µM; in assay [3], greater than 100 µM; in assay [4], 18.6 µM; in [5] it was greater than 100 µM. Moreover, the TGI was greater than 100 µM in assay [6], greater than 100 µM in assay [7] and 35.6 µM in assay [8].
